Results published in ChEMBL document CHEMBL5365463, “Identification of a Self-Assembling Small-Molecule Cancer Vaccine Adjuvant with an Improved Toxicity Profile” (J Med Chem, 2023).
Activity calls are given as the source filed them. No cut-off for these calls is given here.

Experiments:
RAW264.7 [1] = test: Induction of apoptosis in mouse RAW264.7 cells assessed as live cells at 4 uM by flow cytometry analysis (reference value: 67.2 %); format: functional
RAW264.7 [2] = test: Induction of apoptosis in mouse RAW264.7 cells assessed as live cells at 8 uM by flow cytometry analysis (reference value: 67.2 %); format: functional
RAW264.7 [3] = test: Induction of apoptosis in mouse RAW264.7 cells assessed as live cells at 10 uM by flow cytometry analysis (reference value: 67.2 %); format: functional
RAW264.7 [4] = test: Induction of apoptosis in mouse RAW264.7 cells assessed as live cells at 12 uM by flow cytometry analysis (reference value: 67.2 %); format: functional
RAW264.7 [5] = test: Induction of apoptosis in mouse RAW264.7 cells assessed as live cells at 16 uM by flow cytometry analysis (reference value: 67.2 %); format: functional
RAW264.7 [6] = test: Induction of apoptosis in mouse RAW264.7 cells assessed as apoptotic cells at 4 uM by flow cytometry analysis (reference value: 3.06 %); format: functional
RAW264.7 [7] = test: Induction of apoptosis in mouse RAW264.7 cells assessed as apoptotic cells at 8 uM by flow cytometry analysis (reference value: 3.06 %); format: functional
RAW264.7 [8] = test: Induction of apoptosis in mouse RAW264.7 cells assessed as apoptotic cells at 10 uM by flow cytometry analysis (reference value: 3.06 %); format: functional
RAW264.7 [9] = test: Induction of apoptosis in mouse RAW264.7 cells assessed as apoptotic cells at 12 uM by flow cytometry analysis (reference value: 3.06 %); format: functional
RAW264.7 [10] = test: Induction of apoptosis in mouse RAW264.7 cells assessed as apoptotic cells at 16 uM by flow cytometry analysis (reference value: 3.06 %); format: functional
RAW264.7 [11] = test: Induction of apoptosis in mouse RAW264.7 cells assessed as necrotic cells at 4 uM by flow cytometry analysis (reference value: 28.7 %); format: functional
RAW264.7 [12] = test: Induction of apoptosis in mouse RAW264.7 cells assessed as necrotic cells at 8 uM by flow cytometry analysis (reference value: 28.7 %); format: functional
RAW264.7 [13] = test: Induction of apoptosis in mouse RAW264.7 cells assessed as necrotic cells at 10 uM by flow cytometry analysis (reference value: 28.7 %); format: functional
RAW264.7 [14] = test: Induction of apoptosis in mouse RAW264.7 cells assessed as necrotic cells at 12 uM by flow cytometry analysis (reference value: 28.7 %); format: functional
RAW264.7 [15] = test: Induction of apoptosis in mouse RAW264.7 cells assessed as necrotic cells at 16 uM by flow cytometry analysis (reference value: 28.7 %); format: functional
[16] = Toxicity in BALB/c mouse assessed as effect on body weight loss at 1000 ug measured after 16 hrs in presence of hemagglutinin; settings: in vivo, dose 1000 µg
[17] = Toxicity in BALB/c mouse assessed as reduction in leukocyte count measured after 16 hrs; settings: dose 100-1000 µg
[18] = Toxicity in BALB/c mouse assessed as increase in Timp1 expression at 100 to 1000 ug measured after 16 hrs in presence of hemagglutinin; settings: in vivo, dose 100-1000 µg
[19] = Toxicity in BALB/c mouse assessed as increase in Mx2 expression at 100 to 1000 ug measured after 16 hrs in presence of hemagglutinin; settings: in vivo, dose 100-1000 µg
BMDC [20] = test: Induction of immune response in TLR7 knockout mouse BMDC cells assessed as increase in IL-6 production at 10 to 100 uM incubated for 24 hrs by ELISA method; format: functional, cell-based; settings: dose 10-100 µM
BMDC [21] = test: Induction of immune response in TLR7 knockout mouse BMDC cells assessed as increase in TNF-alpha production at 10 to 100 uM incubated for 24 hrs by ELISA method; format: functional, cell-based; settings: dose 10-100 µM
BMDC [22] = test: Induction of immune response in TLR7 knockout mouse BMDC cells assessed as increase in MIP-1alpha production at 10 to 100 uM incubated for 24 hrs by ELISA method; format: functional, cell-based; settings: dose 10-100 µM
BMDC [23] = test: Induction of immune response in TLR7 knockout mouse BMDC cells assessed as increase in IFN-beta production at 10 to 100 uM incubated for 24 hrs by ELISA method; format: functional, cell-based; settings: dose 10-100 µM
BMDC [24] = test: Induction of immune response in TLR7 knockout mouse BMDC cells assessed as increase in CXCL10 production at 10 to 100 uM incubated for 24 hrs by ELISA method; format: functional, cell-based; settings: dose 10-100 µM
Mus musculus = test: Immuno-adjuvant activity in SV-immunized C57BL/6 mouse assessed as increase in HA-specific IgG1 titer level at 100 ug, sc administered immediately and on day 0, 14 and measured at day 21 by ELISA; format: functional, organism-based; settings: dose 100.0 µg, time 21.0 day
BMDC [25] = test: Induction of IL-6 production in mouse BMDC cells at 100 uM; format: functional, cell-based

Work on `C[C@H](CCC(=O)NCCCCCNC(=O)CC[C@@H](C)[C@H]1CC[C@H]2[C@@H]3CC[C@@H]4C[C@H](O)CC[C@]4(C)[C@H]3C[C@H](O)[C@]12C)[C@H]1CC[C@H]2[C@@H]3CC[C@@H]4C[C@H](O)CC[C@]4(C)[C@H]3C[C@H](O)[C@]12C` yielded an Activity (RAW264.7 [1]) of 67.4%, an Activity (RAW264.7 [2]) of 66.9% and an Activity (RAW264.7 [3]) of 33.5%. For the same molecule, the Activity (RAW264.7 [4]) was 27.9%, the Activity (RAW264.7 [5]) was 11.6% and the Activity (RAW264.7 [6]) was 2.23%. It also gave an Activity (RAW264.7 [7]) of 2.26%, an Activity (RAW264.7 [8]) of 0.6% and an Activity (RAW264.7 [9]) of 0.13%. For the same molecule, the Activity (RAW264.7 [10]) was 0.034%, the Activity (RAW264.7 [11]) was 28.6% and the Activity (RAW264.7 [12]) was 29.4%. For the same molecule, the Activity (RAW264.7 [13]) was 63.8%, the Activity (RAW264.7 [14]) was 69.7% and the Activity (RAW264.7 [15]) was 85%. For the same molecule, the Activity [16] was “Toxic”, the Activity [17] was “Dose-Dependent Effect” and the Activity [18] was “Toxic”. The Activity [19] was “Toxic”, the Activity (BMDC [20]) was “inactive” and the Activity (BMDC [21]) was “inactive”. The Activity (BMDC [22]) was “inactive”, the Activity (BMDC [23]) was “inactive” and the Activity (BMDC [24]) was “inactive”. For the same molecule, the Activity (Mus musculus) was “Active”.

For `C[C@H](CCC(=O)NCCCCCNC(=O)CC[C@@H](C)[C@H]1CC[C@H]2[C@@H]3[C@H](O)C[C@@H]4C[C@H](O)CC[C@]4(C)[C@H]3CC[C@]12C)[C@H]1CC[C@H]2[C@@H]3[C@H](O)C[C@H]4C[C@H](O)CC[C@]4(C)[C@H]3CC[C@]12C`, the Activity (BMDC [25]) was “Active”.
